1 compound from PMC4729137, “Functional analysis of androgen receptor mutations that confer anti-androgen resistance identified in circulating cell-free DNA from prostate cancer patients” (Genome Biology, 2016) can be followed below.

The target of one assay is T1, M896T-AR (Homo sapiens, UniProt P10275, M896T).
T1 sequence (P10275 1-920 M896T): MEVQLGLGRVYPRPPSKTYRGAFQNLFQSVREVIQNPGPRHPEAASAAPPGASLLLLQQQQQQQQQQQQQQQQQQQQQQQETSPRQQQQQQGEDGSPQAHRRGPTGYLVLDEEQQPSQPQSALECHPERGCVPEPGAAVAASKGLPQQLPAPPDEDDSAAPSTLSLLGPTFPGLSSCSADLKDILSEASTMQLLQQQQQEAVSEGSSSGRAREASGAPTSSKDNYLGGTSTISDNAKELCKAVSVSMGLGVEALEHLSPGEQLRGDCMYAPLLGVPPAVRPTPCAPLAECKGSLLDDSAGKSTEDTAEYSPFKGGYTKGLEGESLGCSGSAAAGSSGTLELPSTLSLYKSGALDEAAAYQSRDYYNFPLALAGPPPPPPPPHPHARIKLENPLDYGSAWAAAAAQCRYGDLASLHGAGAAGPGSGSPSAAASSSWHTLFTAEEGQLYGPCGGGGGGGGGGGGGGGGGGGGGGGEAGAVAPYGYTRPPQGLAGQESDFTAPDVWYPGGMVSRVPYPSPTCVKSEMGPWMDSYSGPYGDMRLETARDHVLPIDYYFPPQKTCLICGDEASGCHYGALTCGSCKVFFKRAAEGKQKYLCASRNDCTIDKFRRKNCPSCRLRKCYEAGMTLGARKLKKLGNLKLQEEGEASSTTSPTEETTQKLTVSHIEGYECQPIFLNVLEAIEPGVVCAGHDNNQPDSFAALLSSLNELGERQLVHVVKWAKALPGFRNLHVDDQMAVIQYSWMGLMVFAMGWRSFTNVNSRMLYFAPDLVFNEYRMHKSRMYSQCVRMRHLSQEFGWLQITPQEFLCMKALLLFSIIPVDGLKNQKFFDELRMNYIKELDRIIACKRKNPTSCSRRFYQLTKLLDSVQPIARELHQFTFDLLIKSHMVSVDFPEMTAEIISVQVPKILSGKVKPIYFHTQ
It counts as cell-based. The note with it: AR mutant M896T; transfected PC3 cells; 0.1 nM R1881; drug 0 to 50 μM. From the text:
(§1) Full-length human AR (WT-AR) was encoded on a pcDNA3.1 expression plasmid (Life technologies). The LBD point mutations (single and multiple) were generated using the QuikChange II Site-Directed Mutagenesis Kit (Agilent Technologies) as per manufacturer’s instructions using WT-AR as the template. The mutagenic oligonucleotide primers were designed individually with the desired mutation in the middle of the primer with approximately 10 to 15 bases of correct sequence on both sides.
(§2) PC3 cells were seeded and transfected as described above. […] A non-stimulated/no R1881 control was used. After 24 h, cells were lysed and AR-dependent luciferase activity was quantified. Each concentration was assayed in quadruplicate n = 4, with a biological replicate of n = 3. Results were averaged and normalized by expressing them as a percentage of WT AR activity.

A further assay has as its target T2, H875Q-AR (Homo sapiens, UniProt P10275, H875Q).
T2 sequence (P10275 1-920 H875Q): T1 sequence (P10275 1-920 M896T) with H875Q, T896M
In kind it is cell-based. The settings on record: AR mutant H875Q; transfected PC3 cells; 0.1 nM R1881; drug 0 to 50 μM.
Text: as §1, §2

Changes are numbered by the printed parent chain.

With `CC(C)(O)C(=O)Nc1ccc([N+](=O)[O-])c(C(F)(F)F)c1` [Hydroxyflutamide, hydroxyflutamide], the “Agonist response to treatment” value at M896T-AR and at H875Q-AR was “Partial” throughout.
